Test results from patent publication US8956832B2, “Cells expressing anti-GD2 antibodies and methods related thereto” (Morphotek, Inc., priority 2008, dated 2015).

System: AB527-expressing cells
Assay: Effect of valeric acid on cell growth and antibody production
Format: cell-based, Chinese Hamster
Details: for Maximum Viable Cell Density: 14 days; for Doubling Time (DT): in h (unit assumed)
Procedure: To determine the effect of valeric acid on cell growth, AB527-expressing cells were cultured in GIBCO-CD-CHO complete medium supplemented with valeric acid to a concentration of 0 mM, 1 mM, 2 mM, 4 mM, or 8 mM. Cells were cultured for 14 days and viable cell density, percent viability, and integral viable cell density were determined using a CEDEX automated cell counter on days 0, 3, 5, 7, 10, 13, and 14. Antibody production was determined for each group of cultured cells on day 14 by protein A HPLC.

In the case of `CCCCC(=O)O` [Valeric Acid, valeric acid], the “Integral of Viable Cell Density (IVC)” value (1 mM valeric acid) is reported as 6.74E+7 cells · day/mL, the “Specific Antibody Production Rate (Qp)” value (1 mM valeric acid) is reported as 58.44 mg/10^9 cells/day and the “Maximum Viable Cell Density” value (1 mM valeric acid) is reported as 94.60 10^5/mL. The “Final Antibody Titer” value (1 mM valeric acid, day 14) was 4137.1 mg/L, the “antibody titer higher than that of the control culture” value (1 mM valeric acid, day 14) was 36% and the “Final Antibody Titer” value (1 mM valeric acid, day 14, listed as valeric acid) was 4137 mg/L. For the same molecule, the “Doubling Time (DT)” value (1 mM valeric acid) was 24.17, the “Integral of Viable Cell Density (IVC)” value (2 mM valeric acid) was 6.55E+7 cells · day/mL and the “Specific Antibody Production Rate (Qp)” value (2 mM valeric acid) was 54.45 mg/10^9 cells/day. The “Maximum Viable Cell Density” value (2 mM valeric acid) was 81.00 10^5/mL, the “Final Antibody Titer” value (2 mM valeric acid, day 14) was 3706.7 mg/L and the “Doubling Time (DT)” value (2 mM valeric acid) was 24.17. The “Integral of Viable Cell Density (IVC)” value (4 mM valeric acid) was 6.72E+7 cells · day/mL, the “Specific Antibody Production Rate (Qp)” value (4 mM valeric acid) was 52.24 mg/10^9 cells/day and the “Maximum Viable Cell Density” value (4 mM valeric acid) was 77.40 10^5/mL. The “Final Antibody Titer” value (4 mM valeric acid, day 14) was 3600.1 mg/L, the “Doubling Time (DT)” value (4 mM valeric acid) was 24.17 and the “Integral of Viable Cell Density (IVC)” value (8 mM valeric acid) was 4.76E+7 cells · day/mL. The “Specific Antibody Production Rate (Qp)” value (8 mM valeric acid) was 56.16 mg/10^9 cells/day, the “Maximum Viable Cell Density” value (8 mM valeric acid) was 54.40 10^5/mL and the maximum cell density (8 mM valeric acid, at day 7) was 5.4×10^6 cells/mL. The viability (8 mM valeric acid, at day 7) was 67.4%, the “Final Antibody Titer” value (8 mM valeric acid, day 14) was 2760.4 mg/L and the “Doubling Time (DT)” value (8 mM valeric acid) was 24.17.
